Results as given in ChEMBL document CHEMBL3588844, “Discovery of A-893, A New Cell-Active Benzoxazinone Inhibitor of Lysine Methyltransferase SMYD2” (ACS Med Chem Lett, 2015).
Activity calls are given as the source filed them. No cut-off for these calls is given here.

Columns and labels:
[1] = molecular target: N-lysine methyltransferase SMYD2 (Homo sapiens, UniProt Q9NRG4)
[2] = test system: A549; test: Upregulation of p53 protein level in human A549 cells at 10 uM after 18 hrs relative to control; format: functional
[3] = molecular target: DNMT3A2/3L complex (Homo sapiens) (UniProt Q9Y6K1+Q9UJW3); test: Inhibition of DNMT3A/3L (unknown origin) at 1 uM after 1 hr by filter-based assay; format: protein-complex assay
[4] = molecular target: Histone-lysine N-methyltransferase EHMT2 (Homo sapiens) (UniProt Q96KQ7); test: Inhibition of G9a (unknown origin) assessed as incorporation of tritium labeled methyl group from [3H]-SAM to substrate at 1 uM after 1 hr by scintillation proximity assay relative to control
[5] = molecular target: Histone-lysine N-methyltransferase EHMT1 (Homo sapiens) (UniProt Q9H9B1); test: Inhibition of EHMT1 (unknown origin) assessed as incorporation of tritium labeled methyl group from [3H]-SAM to substrate at 1 uM after 1 hr by scintillation proximity assay relative to control
[6] = molecular target: Histone-lysine N-methyltransferase SUV39H2 (Homo sapiens) (UniProt Q9H5I1); test: Inhibition of SUV39H2 (unknown origin) assessed as incorporation of tritium labeled methyl group from [3H]-SAM to substrate at 1 uM after 1 hr by scintillation proximity assay relative to control
[7] = molecular target: Histone-lysine N-methyltransferase SETDB1 (Homo sapiens) (UniProt Q15047); test: Inhibition of SETDB1 (unknown origin) assessed as incorporation of tritium labeled methyl group from [3H]-SAM to substrate at 1 uM after 1 hr by scintillation proximity assay relative to control
[8] = molecular target: Histone-lysine N-methyltransferase SETD7 (Homo sapiens) (UniProt Q8WTS6); test: Inhibition of SETD7 (unknown origin) assessed as incorporation of tritium labeled methyl group from [3H]-SAM to substrate at 1 uM after 1 hr by scintillation proximity assay relative to control
[9] = molecular target: N-lysine methyltransferase KMT5A (Homo sapiens) (UniProt Q9NQR1); test: Inhibition of SETD8 (unknown origin) assessed as incorporation of tritium labeled methyl group from [3H]-SAM to substrate at 1 uM after 1 hr by scintillation proximity assay relative to control
[10] = molecular target: Histone-lysine N-methyltransferase KMT5B (Homo sapiens) (UniProt Q4FZB7); test: Inhibition of SUV420H1 (unknown origin) assessed as incorporation of tritium labeled methyl group from [3H]-SAM to substrate at 1 uM after 1 hr by scintillation proximity assay relative to control
[11] = molecular target: Histone-lysine N-methyltransferase KMT5C (Homo sapiens) (UniProt Q86Y97); test: Inhibition of SUV420H2 (unknown origin) at 1 uM after 1 hr by filter-based assay
[12] = molecular target: Histone-lysine N-methyltransferase 2A (Homo sapiens) (UniProt Q03164); test: Inhibition of MLL1 trimeric complex (unknown origin) assessed as incorporation of tritium labeled methyl group from [3H]-SAM to substrate at 1 uM after 1 hr by scintillation proximity assay relative to control
[13] = molecular target: Histone-lysine N-methyltransferase EZH1 (Homo sapiens) (UniProt Q92800); test: Inhibition of EZH1 pentameric complex (unknown origin) assessed as incorporation of tritium labeled methyl group from [3H]-SAM to substrate at 1 uM after 1 hr by scintillation proximity assay relative to control
[14] = molecular target: Histone-lysine N-methyltransferase EZH2 (Homo sapiens) (UniProt Q15910); test: Inhibition of EZH2 trimeric complex (unknown origin) assessed as incorporation of tritium labeled methyl group from [3H]-SAM to substrate at 1 uM after 1 hr by scintillation proximity assay relative to control
[15] = molecular target: Histone-lysine N-methyltransferase SETD2 (Homo sapiens) (UniProt Q9BYW2); test: Inhibition of SETD2 (unknown origin) assessed as incorporation of tritium labeled methyl group from [3H]-SAM to substrate at 1 uM after 1 hr by scintillation proximity assay relative to control
[16] = molecular target: Histone-lysine N-methyltransferase PRDM9 (Homo sapiens) (UniProt Q9NQV7); test: Inhibition of PRDM9 (unknown origin) assessed as incorporation of tritium labeled methyl group from [3H]-SAM to substrate at 1 uM after 1 hr by scintillation proximity assay relative to control
[17] = molecular target: Protein arginine N-methyltransferase 1 (Homo sapiens) (UniProt Q99873); test: Inhibition of PRMT1 (unknown origin) assessed as incorporation of tritium labeled methyl group from [3H]-SAM to substrate at 1 uM after 1 hr by scintillation proximity assay relative to control
[18] = molecular target: Protein arginine N-methyltransferase 3 (Homo sapiens) (UniProt O60678); test: Inhibition of PRMT3 (unknown origin) assessed as incorporation of tritium labeled methyl group from [3H]-SAM to substrate at 1 uM after 1 hr by scintillation proximity assay relative to control
[19] = molecular target: PRMT5/MEP50 complex (Homo sapiens) (UniProt O14744+Q9BQA1); test: Inhibition of PRMT5-MEP50 complex (unknown origin) assessed as incorporation of tritium labeled methyl group from [3H]-SAM to substrate at 1 uM after 1 hr by scintillation proximity assay relative to control; format: protein-complex assay
[20] = molecular target: Protein arginine N-methyltransferase 6 (Homo sapiens) (UniProt Q96LA8); test: Inhibition of PRMT6 (unknown origin) assessed as incorporation of tritium labeled methyl group from [3H]-SAM to substrate at 1 uM after 1 hr by scintillation proximity assay relative to control
[21] = molecular target: Protein arginine N-methyltransferase 7 (Homo sapiens) (UniProt Q9NVM4); test: Inhibition of PRMT7 (unknown origin) assessed as incorporation of tritium labeled methyl group from [3H]-SAM to substrate at 1 uM after 1 hr by scintillation proximity assay relative to control
[22] = molecular target: Protein arginine N-methyltransferase 8 (Homo sapiens) (UniProt Q9NR22); test: Inhibition of PRMT8 (unknown origin) assessed as incorporation of tritium labeled methyl group from [3H]-SAM to substrate at 1 uM after 1 hr by scintillation proximity assay relative to control
[23] = molecular target: Histone-lysine N-methyltransferase, H3 lysine-36 specific (Homo sapiens) (UniProt Q96L73); test: Inhibition of NSD1 (unknown origin) at 1 uM after 1 hr by filter-based assay
[24] = molecular target: Histone-lysine N-methyltransferase NSD2 (Homo sapiens) (UniProt O96028); test: Inhibition of NSD2 (unknown origin) at 1 uM after 1 hr by filter-based assay
[25] = molecular target: Histone-lysine N-methyltransferase NSD3 (Homo sapiens) (UniProt Q9BZ95); test: Inhibition of NSD3 (unknown origin) at 1 uM after 1 hr by filter-based assay
[26] = molecular target: Histone-lysine N-methyltransferase ASH1L (Homo sapiens) (UniProt Q9NR48); test: Inhibition of ASH1L (unknown origin) at 1 uM after 1 hr by filter-based assay
[27] = molecular target: Histone-lysine N-methyltransferase, H3 lysine-79 specific (Homo sapiens) (UniProt Q8TEK3); test: Inhibition of DOT1L (unknown origin) at 1 uM after 1 hr by filter-based assay
[28] = molecular target: DNA (cytosine-5)-methyltransferase 1 (Homo sapiens) (UniProt P26358); test: Inhibition of DNMT1 (unknown origin) assessed as incorporation of tritium labeled methyl group from [3H]-SAM to dsDNA substrate at 1 uM after 1 hr by scintillation proximity assay relative to control
[29] = molecular target: DNMT3B-DNMT3L complex (Homo sapiens) (UniProt Q9UBC3+Q9UJW3); test: Inhibition of DNMT3B/3L (unknown origin) at 1 uM after 1 hr by filter-based assay; format: protein-complex assay
[30] = molecular target: RNA 5'-monophosphate methyltransferase (Homo sapiens) (UniProt Q7Z5W3); test: Inhibition of BCDIN3D (unknown origin) assessed as incorporation of tritium labeled methyl group from [3H]-SAM to substrate at 1 uM after 1 hr by scintillation proximity assay relative to control
[31] = molecular target: Protein N-lysine methyltransferase METTL21A (Homo sapiens) (UniProt Q8WXB1); test: Inhibition of METTL21A (unknown origin) assessed as incorporation of tritium labeled methyl group from [3H]-SAM to substrate at 1 uM after 1 hr by scintillation proximity assay relative to control
[32] = molecular target: Protein N-lysine methyltransferase METTL21D (Homo sapiens) (UniProt Q9H867); test: Inhibition of METTL21D (unknown origin) assessed as incorporation of tritium labeled methyl group from [3H]-SAM to substrate at 1 uM after 1 hr by scintillation proximity assay relative to control
[33] = molecular target: Histone-lysine N-methyltransferase SMYD3 (Homo sapiens) (UniProt Q9H7B4); test: Inhibition of SMYD3 (unknown origin) assessed as incorporation of tritium labeled methyl group from [3H]-SAM to substrate at 1 uM after 1 hr by scintillation proximity assay relative to control
[34] = molecular target: Protein arginine N-methyltransferase 3 (Homo sapiens) (UniProt O60678); test: Inhibition of PRMT3 (unknown origin) assessed as incorporation of tritium labeled methyl group from [3H]-SAM to substrate at 10 to 50 uM after 1 hr by scintillation proximity assay relative to control
[35] = molecular target: Protein arginine N-methyltransferase 7 (Homo sapiens) (UniProt Q9NVM4); test: Inhibition of PRMT7 (unknown origin) assessed as incorporation of tritium labeled methyl group from [3H]-SAM to substrate at 10 to 50 uM after 1 hr by scintillation proximity assay relative to control
[36] = molecular target: Histone-lysine N-methyltransferase SUV39H2 (Homo sapiens) (UniProt Q9H5I1); test: Inhibition of SUV39H2 (unknown origin) assessed as incorporation of tritium labeled methyl group from [3H]-SAM to substrate at 10 to 50 uM after 1 hr by scintillation proximity assay relative to control
[37] = molecular target: Histone-lysine N-methyltransferase SMYD3 (Homo sapiens) (UniProt Q9H7B4); test: Inhibition of SMYD3 (unknown origin) assessed as incorporation of tritium labeled methyl group from [3H]-SAM to substrate at 10 to 50 uM after 1 hr by scintillation proximity assay relative to control
[38] = test system: A549; test: Effect on p53 protein level in human A549 cells at 10 uM after 18 hrs; format: functional, cell-based

Sequence of N-lysine methyltransferase SMYD2 (Q9NRG4 whole entry): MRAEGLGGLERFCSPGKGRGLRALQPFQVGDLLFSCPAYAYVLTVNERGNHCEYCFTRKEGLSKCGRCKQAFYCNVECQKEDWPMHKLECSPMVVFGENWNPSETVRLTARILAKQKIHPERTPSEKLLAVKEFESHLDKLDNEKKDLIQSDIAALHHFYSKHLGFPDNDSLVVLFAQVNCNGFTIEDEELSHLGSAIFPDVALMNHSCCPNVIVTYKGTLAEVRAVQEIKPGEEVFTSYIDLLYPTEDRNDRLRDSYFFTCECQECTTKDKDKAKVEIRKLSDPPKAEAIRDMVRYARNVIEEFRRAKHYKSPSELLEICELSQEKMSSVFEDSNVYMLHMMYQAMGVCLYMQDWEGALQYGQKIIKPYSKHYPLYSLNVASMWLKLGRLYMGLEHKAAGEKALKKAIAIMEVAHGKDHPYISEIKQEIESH
Sequence of Protein arginine N-methyltransferase 7 (Homo sapiens) (Q9NVM4 whole entry): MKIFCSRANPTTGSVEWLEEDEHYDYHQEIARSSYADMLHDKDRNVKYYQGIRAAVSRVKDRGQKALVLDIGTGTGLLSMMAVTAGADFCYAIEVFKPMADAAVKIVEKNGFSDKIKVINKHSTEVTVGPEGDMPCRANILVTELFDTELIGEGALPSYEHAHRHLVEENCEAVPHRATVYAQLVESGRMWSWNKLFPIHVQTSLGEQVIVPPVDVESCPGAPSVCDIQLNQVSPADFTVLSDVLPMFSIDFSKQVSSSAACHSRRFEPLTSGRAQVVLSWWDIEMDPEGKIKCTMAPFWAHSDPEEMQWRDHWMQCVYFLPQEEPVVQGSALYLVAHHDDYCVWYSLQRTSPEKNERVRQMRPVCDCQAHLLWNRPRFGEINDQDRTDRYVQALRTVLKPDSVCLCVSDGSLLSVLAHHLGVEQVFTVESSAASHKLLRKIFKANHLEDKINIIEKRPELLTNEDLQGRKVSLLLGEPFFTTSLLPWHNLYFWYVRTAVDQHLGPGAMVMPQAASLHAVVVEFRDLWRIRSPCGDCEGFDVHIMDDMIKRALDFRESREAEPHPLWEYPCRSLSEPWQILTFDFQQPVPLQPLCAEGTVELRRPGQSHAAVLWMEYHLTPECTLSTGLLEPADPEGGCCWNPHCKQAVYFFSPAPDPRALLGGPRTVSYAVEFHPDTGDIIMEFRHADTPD
Sequence of Histone-lysine N-methyltransferase SMYD3 (Homo sapiens) (Q9H7B4 whole entry): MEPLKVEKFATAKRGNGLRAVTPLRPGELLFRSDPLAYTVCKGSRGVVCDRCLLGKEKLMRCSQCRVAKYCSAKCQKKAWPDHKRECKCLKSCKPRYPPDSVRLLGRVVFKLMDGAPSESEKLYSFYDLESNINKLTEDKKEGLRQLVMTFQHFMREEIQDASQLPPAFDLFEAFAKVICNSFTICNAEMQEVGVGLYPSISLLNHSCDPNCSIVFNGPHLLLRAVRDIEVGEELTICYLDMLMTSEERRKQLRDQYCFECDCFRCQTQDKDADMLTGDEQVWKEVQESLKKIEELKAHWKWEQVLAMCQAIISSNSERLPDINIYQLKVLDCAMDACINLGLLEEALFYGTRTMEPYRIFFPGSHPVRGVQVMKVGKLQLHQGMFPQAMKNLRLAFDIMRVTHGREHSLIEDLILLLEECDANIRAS
Sequence of Histone-lysine N-methyltransferase SUV39H2 (Homo sapiens) (Q9H5I1 whole entry): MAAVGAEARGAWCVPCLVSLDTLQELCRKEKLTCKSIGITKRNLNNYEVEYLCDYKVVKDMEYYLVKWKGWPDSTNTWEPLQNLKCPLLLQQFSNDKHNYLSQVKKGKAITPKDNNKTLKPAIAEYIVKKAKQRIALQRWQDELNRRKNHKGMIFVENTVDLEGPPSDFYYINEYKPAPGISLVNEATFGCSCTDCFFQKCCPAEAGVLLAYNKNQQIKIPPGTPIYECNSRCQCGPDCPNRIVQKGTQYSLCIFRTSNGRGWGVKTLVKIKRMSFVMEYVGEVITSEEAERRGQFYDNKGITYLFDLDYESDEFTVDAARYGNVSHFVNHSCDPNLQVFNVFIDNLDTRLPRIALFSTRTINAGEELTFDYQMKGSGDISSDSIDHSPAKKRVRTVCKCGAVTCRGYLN
Sequence of Protein arginine N-methyltransferase 3 (Homo sapiens) (O60678 2-531 limits assumed): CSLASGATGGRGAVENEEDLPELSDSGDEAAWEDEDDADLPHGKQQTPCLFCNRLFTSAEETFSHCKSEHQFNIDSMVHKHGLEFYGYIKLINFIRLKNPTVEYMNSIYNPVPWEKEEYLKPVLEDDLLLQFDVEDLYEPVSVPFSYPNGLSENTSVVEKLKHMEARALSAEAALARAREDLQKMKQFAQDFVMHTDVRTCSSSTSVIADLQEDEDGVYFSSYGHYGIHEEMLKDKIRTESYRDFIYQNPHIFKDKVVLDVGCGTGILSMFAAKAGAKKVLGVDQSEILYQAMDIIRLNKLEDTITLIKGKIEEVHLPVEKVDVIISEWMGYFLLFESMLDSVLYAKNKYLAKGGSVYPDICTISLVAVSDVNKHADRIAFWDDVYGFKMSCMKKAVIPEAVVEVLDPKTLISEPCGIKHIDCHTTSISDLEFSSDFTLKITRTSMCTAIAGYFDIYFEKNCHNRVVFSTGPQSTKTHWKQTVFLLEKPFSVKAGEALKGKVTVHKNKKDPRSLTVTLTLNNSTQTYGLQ
Sequence of Histone-lysine N-methyltransferase KMT5C (Homo sapiens) (Q86Y97 whole entry, looked up): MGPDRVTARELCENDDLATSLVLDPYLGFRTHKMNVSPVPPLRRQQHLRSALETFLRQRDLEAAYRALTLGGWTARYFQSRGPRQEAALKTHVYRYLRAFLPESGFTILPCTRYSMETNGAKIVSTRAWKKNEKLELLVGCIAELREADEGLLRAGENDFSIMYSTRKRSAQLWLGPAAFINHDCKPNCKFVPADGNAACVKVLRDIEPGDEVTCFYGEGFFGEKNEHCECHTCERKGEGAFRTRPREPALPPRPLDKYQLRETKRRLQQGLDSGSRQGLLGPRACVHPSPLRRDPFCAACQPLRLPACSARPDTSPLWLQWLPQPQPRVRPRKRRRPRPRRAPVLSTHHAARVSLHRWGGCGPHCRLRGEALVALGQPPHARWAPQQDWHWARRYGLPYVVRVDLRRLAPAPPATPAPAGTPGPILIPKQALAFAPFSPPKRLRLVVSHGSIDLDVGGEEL
Sequence of Histone-lysine N-methyltransferase NSD3 (Homo sapiens) (Q9BZ95 whole entry): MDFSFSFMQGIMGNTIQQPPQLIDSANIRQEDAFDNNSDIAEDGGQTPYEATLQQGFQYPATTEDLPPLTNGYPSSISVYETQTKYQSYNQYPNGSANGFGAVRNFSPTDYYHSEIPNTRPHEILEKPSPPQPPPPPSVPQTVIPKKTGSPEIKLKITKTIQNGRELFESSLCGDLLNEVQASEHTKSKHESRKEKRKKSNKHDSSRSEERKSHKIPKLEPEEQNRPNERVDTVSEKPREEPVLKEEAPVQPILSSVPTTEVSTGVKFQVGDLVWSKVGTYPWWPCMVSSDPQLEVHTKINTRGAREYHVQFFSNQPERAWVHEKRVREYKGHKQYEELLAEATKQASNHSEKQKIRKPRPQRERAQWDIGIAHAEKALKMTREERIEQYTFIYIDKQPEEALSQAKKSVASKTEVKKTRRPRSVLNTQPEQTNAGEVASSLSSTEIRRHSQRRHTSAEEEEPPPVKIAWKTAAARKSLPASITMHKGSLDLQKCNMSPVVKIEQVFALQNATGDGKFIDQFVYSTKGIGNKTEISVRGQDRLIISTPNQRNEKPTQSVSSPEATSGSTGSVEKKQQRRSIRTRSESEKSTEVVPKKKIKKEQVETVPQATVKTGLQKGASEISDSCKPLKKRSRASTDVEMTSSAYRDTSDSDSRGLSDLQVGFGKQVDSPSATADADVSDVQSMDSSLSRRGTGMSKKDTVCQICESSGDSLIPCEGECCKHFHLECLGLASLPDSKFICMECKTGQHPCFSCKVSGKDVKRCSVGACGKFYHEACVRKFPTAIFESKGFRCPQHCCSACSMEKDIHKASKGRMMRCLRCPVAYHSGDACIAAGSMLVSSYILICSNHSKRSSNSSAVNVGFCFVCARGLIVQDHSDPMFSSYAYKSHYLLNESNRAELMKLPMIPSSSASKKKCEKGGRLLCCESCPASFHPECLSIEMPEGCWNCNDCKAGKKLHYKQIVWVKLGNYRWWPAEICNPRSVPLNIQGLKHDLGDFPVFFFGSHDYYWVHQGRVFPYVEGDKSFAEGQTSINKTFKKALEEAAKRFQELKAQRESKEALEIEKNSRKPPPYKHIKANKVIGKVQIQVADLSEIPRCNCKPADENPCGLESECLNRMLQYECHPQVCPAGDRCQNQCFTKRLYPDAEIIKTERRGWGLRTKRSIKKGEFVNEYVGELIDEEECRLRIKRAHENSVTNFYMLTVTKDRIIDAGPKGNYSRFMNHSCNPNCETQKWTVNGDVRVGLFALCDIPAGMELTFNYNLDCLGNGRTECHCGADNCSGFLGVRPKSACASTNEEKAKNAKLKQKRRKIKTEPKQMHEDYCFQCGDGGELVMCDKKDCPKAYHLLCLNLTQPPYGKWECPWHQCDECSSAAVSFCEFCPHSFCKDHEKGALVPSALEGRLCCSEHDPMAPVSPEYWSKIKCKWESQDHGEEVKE
Sequence of Protein arginine N-methyltransferase 6 (Homo sapiens) (Q96LA8 whole entry, looked up): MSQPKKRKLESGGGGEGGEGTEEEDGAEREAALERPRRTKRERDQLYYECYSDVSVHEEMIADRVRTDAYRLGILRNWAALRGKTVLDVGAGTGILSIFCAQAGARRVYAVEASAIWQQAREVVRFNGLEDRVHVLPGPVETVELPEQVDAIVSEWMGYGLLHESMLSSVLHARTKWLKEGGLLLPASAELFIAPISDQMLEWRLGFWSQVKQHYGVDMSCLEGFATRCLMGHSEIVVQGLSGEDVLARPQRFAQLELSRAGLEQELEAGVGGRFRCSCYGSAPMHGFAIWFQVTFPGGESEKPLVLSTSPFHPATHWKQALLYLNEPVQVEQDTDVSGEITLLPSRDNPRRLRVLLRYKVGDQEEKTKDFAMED
Sequence of Protein N-lysine methyltransferase METTL21D (Homo sapiens) (Q9H867 whole entry): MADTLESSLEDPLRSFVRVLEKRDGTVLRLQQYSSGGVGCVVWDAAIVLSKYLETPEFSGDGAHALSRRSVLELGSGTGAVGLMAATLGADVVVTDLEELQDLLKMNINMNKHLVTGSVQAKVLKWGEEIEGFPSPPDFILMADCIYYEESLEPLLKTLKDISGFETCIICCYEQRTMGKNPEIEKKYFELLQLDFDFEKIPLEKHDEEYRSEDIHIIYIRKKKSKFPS

In the case of `O=C1COc2c(cccc2[C@H](O)CNCCN(C(=O)CCNCCc2ccc(Cl)c(Cl)c2)C2CCCCC2)N1`, the IC50 [1] is reported as 5.6 nM.
With `O=C1COc2c(CCNCCN(C(=O)CCNCCc3ccccc3)C3CCCCC3)ccc(O)c2N1` the IC50 [1] was 440 nM.
`O=C(CCNCCc1ccc(Cl)c(Cl)c1)N(CCNCCCN1CCCCC1)C1CCCCC1` gave an IC50 [1] of 2400 nM.
For `O=C1COc2c(CCNCCN(C(=O)CCNCCc3ccc(Cl)c(Cl)c3)C3CCCCC3)ccc(O)c2N1`, the “fold change (FC)” value [2] was over 3 and the IC50 [1] was 230 nM.
`O=C1COc2c(CCNCCN(C(=O)CCNCCc3ccccc3)C3CCC3)ccc(O)c2N1` gave an IC50 [1] of 26000 nM.
With `O=C1COc2c(cccc2[C@@H](O)CNCCN(C(=O)CCNCCc2ccc(Cl)c(Cl)c2)C2CCCCC2)N1` the inhibition [3] was “inactive”, the inhibition [4] was “inactive” and the inhibition [5] was “inactive”. For the same compound, the inhibition [6] was “inactive”, the inhibition [7] was “inactive” and the inhibition [8] was “inactive”. The inhibition [9] was “inactive”, the inhibition [10] was “inactive” and the inhibition [11] was “inactive”. The inhibition [12] was “inactive”, the inhibition [13] was “inactive” and the inhibition [14] was “inactive”. The inhibition [15] was “inactive”, the inhibition [16] was “inactive” and the inhibition [17] was “inactive”. The inhibition [18] was “inactive”, the inhibition [19] was “inactive” and the inhibition [20] was “inactive”. For the same compound, the inhibition [21] was “inactive”, the inhibition [22] was “inactive” and the inhibition [23] was “inactive”. For the same compound, the inhibition [24] was “inactive”, the inhibition [25] was “inactive” and the inhibition [26] was “inactive”. The inhibition [27] was “inactive”, the inhibition [28] was “inactive” and the inhibition [29] was “inactive”. For the same compound, the inhibition [30] was “inactive”, the inhibition [31] was “inactive” and the inhibition [32] was “inactive”. The inhibition [33] was “inactive”, the inhibition [34] was 65% and the inhibition [35] was 65%. For the same compound, the inhibition [36] was 65%, the inhibition [37] was 65% and the Activity [38] was “inactive”. It also gave an IC50 [1] of 2.8 nM.
With `O=C(CCNCCc1ccc(Cl)c(Cl)c1)N(CCNCCCN1CCCC1)C1CCCCC1` the IC50 [1] was 1400 nM.
Work on `O=C1COc2c(CCNCCN(C(=O)CCNCc3ccc(Cl)c(Cl)c3)C3CCCCC3)ccc(O)c2N1` yielded an IC50 [1] of 3100 nM.
In the case of `O=C(CCNCCc1ccc(Cl)c(Cl)c1)N(CCNCCN1CCCC1)C1CCCCC1`, the IC50 [1] is reported as 5000 nM.
In the case of `O=C1COc2c(CCNCCN(C(=O)CCNCCc3ccccc3)C3CCCC3)ccc(O)c2N1`, the IC50 [1] is reported as 2200 nM.
